A short description of the experiment: DPPH radical scavenging antioxidant test. Format: biochemical. The following applies: for Inhibition (radical scavenging inhibition) / A (absorbance): DPPH 0.2 mL (0.75 mM), compound 3 μM in ethanol, 30 min incubation in the dark; for A (absorbance): read at 517 nm against a blank. On the procedure: The antioxidant properties of the 8-(4-methoxybenzylideneamino)naphthalene-1,3-disulfonic acid were studied by adding 0.2 mL DPPH (0.75 mM)) to compound 8-(4-methoxybenzylideneamino) naphthalene-1,3 -di sulfonic acid (III) (3 μM) in ethanol. After 30 min of incubation in the dark, the absorbance was read against a blank at 517 nm. Ascorbic acid (vitamin C) was used as standard antioxidants (positive control). A blank sample was prepared by 0.2 ml of DPPH in 3 ml ethanol. A negative control sample was run using ethanol instead of the sample. The radical scavenging inhibition was calculated using the following equation: […]

In the case of `COc1ccc(/C=N/c2cccc3cc(S(=O)(=O)O)cc(S(=O)(=O)O)c23)cc1` [Product III, 8-(4-methoxybenzylideneamino)naphthalene-1,3-disulfonic acid], the “A (absorbance)” value is recorded as 0.22. Where the note is “517 nm”, the “Inhibition (radical scavenging inhibition)” value turned out to be 50%. Moreover, the “antioxidant potential (DPPH), in words” value (DPPH in vitro test, 517 nm, vitamin C as positive control) is “high potential as an antioxidant compared to vitamin C”.

Consider `O=C1O[C@H]([C@@H](O)CO)C(O)=C1O` [vit c, Ascorbic acid, reference compound], for which the “A (absorbance)” value came out at 0.12. The “Inhibition (radical scavenging inhibition)” value (517 nm) worked out at 74%.
